Assay [1] has as its target BtNosP (Burkholderia thailandensis, UniProt Q2T7C0). Nature of the assay: biochemical. In kind it is binding.
The target in assay [2] is T1, BtNosP (Burkholderia thailandensis, UniProt Q2T7C0).
T1 sequence (Q2T7C0 1-386): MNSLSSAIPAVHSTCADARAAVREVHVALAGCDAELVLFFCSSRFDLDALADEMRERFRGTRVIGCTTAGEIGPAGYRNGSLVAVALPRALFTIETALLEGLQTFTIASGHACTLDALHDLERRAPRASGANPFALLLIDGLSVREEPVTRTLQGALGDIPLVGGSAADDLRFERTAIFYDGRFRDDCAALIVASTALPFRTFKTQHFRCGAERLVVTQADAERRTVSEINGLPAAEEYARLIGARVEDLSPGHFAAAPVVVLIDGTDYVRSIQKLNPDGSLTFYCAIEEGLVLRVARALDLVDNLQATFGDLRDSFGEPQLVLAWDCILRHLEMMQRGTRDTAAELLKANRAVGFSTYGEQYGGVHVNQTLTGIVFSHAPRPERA
The assay is classed as binding.

The source of these data is publication PMC10478957 (Biochemistry, 2023).

For orientation: Kd means the free concentration of one partner at which half of the binding sites on the other are occupied at equilibrium, for simple one-to-one binding. A lower Kd goes with higher affinity.

Molecule `C=CC1=C(C)C2=Cc3c(C=C)c(C)c4[n]3[Fe]([Cl])[n]3c(c(C)c(CCC(=O)O)c3=CC3=NC(=C4)C(C)=C3CCC(=O)O)=CC1=N2` [hemin] came in with a dissociation constant (Kd) on BtNosP [1] of 530 ± 120 nM.

As for `[N]=O` [nitric oxide], the “UV-vis spectroscopy of Fe(II)-NO complex; CO/dithionite trap NO dissociation rat” value on BtNosP [2] was “(1.73 ± 0.6) × 10^−4 s^−1”.
